Source: US9326973B2, “Hepatitis C virus inhibitors” (priority 2012, dated 2016)

Tested on: HCV replicon, genotype-1a variant with glutamine 30 changed to glutamate in the NS5A protein
Assay: microbe, parasite or virus in culture
Format: cell-based, HCV genotype 1a
Details: not given
Description: The NS5A synergistic inhibitory effect of test compounds can be determined using various amounts of an NS5A-targeting compound with titration of a second compound of interest. […] In one embodiment, the HCV genotype strain can be genotype 1a containing a change at amino acid 30 of the NS5A protein consisting of glutamine to glutamate. The test compound can be chosen from compounds listed above or from others present in the literature.

Structure (SMILES) | reciprocal synergistic inhibitory effect for the combination
COC(=O)N[C@H](C(=O)N1CCC[C@H]1c1nc(-c2ccc(-c3ccc(-c4c[nH]c([C@@H]5CCCN5C(=O)[C@@H](NC(=O)OC)C(C)C)n4)cc3)cc2)c[nH]1)C(C)C [BMS-790052, reference compound] | ~100 fold

Same assay, conditions: HCV replicon genotype 1a Q30E (Q→E) variant; test compound titrated with an NS5A-targeting compound (BMS-790052 fixed at 200 nM); ranking of synergist activity

Structure (SMILES) | Fold-Synergistic 1a (Q30E)
CC(C)C(N[S+]([O-])C(C)(C)C)c1ncc(-c2ccc(-c3ccc(-c4cnc([C@@H](N[S+]([O-])C(C)(C)C)C(C)C)[nH]4)cc3)cc2)[nH]1 (single isomer, unassigned) [Compound Y-61] | <10 fold
CC(C)(C)[C@H](NC(=O)C1(C2(O)CCOCC2)CCC1)c1ncc(-c2ccc(-c3ccc(-c4cnc([C@@H](NC(=O)C5(C6(O)CCOCC6)CCC5)C(C)(C)C)[nH]4)cc3)cc2)[nH]1 [Compound B84] | >100 fold
CN(C)C(=N[C@H](c1ncc(-c2ccc(-c3ccc(-c4cnc([C@@H](NC(=O)C5(C6(O)CCOCC6)CCC5)C(C)(C)C)[nH]4)cc3)cc2)[nH]1)C(C)(C)C)N(C)C [Compound B85] | >10 fold
CC(C)(C)[C@H](NCC1CCCCC1)c1nc(-c2ccc(-c3ccc(-c4c[nH]c([C@@H](NCC5CCCCC5)C(C)(C)C)n4)cc3)cc2)c[nH]1 [Compound L-2] | >100 fold
CC(C)(C)[C@H](NC(=O)[C@H]1COC(=O)N1)c1nc(-c2ccc(-c3ccc(-c4c[nH]c([C@@H](NC(=O)[C@H]5COC(=O)N5)C(C)(C)C)n4)cc3)cc2)c[nH]1 [Compound L-9] | >10 fold
CC(C)(C)[C@H](NC(=O)[C@@H]1CCC(=O)N1)c1nc(-c2ccc(-c3ccc(-c4c[nH]c([C@@H](NC(=O)[C@@H]5CCC(=O)N5)C(C)(C)C)n4)cc3)cc2)c[nH]1 [Compound L-10] | >10 fold
CC(=O)N(C)C1(C(=O)N[C@H](c2nc(-c3ccc(-c4ccc(-c5c[nH]c([C@@H](NC(=O)C6(N(C)C(C)=O)CC6)C(C)(C)C)n5)cc4)cc3)c[nH]2)C(C)(C)C)CC1 [Compound L-11] | >100 fold
CC(=O)N(C)C1(C(=O)N[C@H](c2nc(-c3ccc(-c4ccc(-c5c[nH]c([C@@H](NC(=O)C6(N(C)C(C)=O)CCC6)C(C)(C)C)n5)cc4)cc3)c[nH]2)C(C)(C)C)CCC1 [Compound L-12] | >100 fold
CN(C(=O)OC(C)(C)C)C1(C(=O)N[C@H](c2nc(-c3ccc(-c4ccc(-c5c[nH]c([C@@H](NC(=O)C6(N(C)C(=O)OC(C)(C)C)CC6)C(C)(C)C)n5)cc4)cc3)c[nH]2)C(C)(C)C)CC1 [Compound L-13] | >100 fold
CN(C(=O)OC(C)(C)C)C1(C(=O)N[C@H](c2nc(-c3ccc(-c4ccc(-c5c[nH]c([C@@H](NC(=O)C6(N(C)C(=O)OC(C)(C)C)CCC6)C(C)(C)C)n5)cc4)cc3)c[nH]2)C(C)(C)C)CCC1 [Compound L-14] | >100 fold
CC(C)(C)OC(=O)N1CCC[C@]1(C)C(=O)N[C@H](c1nc(-c2ccc(-c3ccc(-c4c[nH]c([C@@H](NC(=O)[C@@]5(C)CCCN5C(=O)OC(C)(C)C)C(C)(C)C)n4)cc3)cc2)c[nH]1)C(C)(C)C [Compound L-15] | >100 fold
CC(C)(C)OC(=O)N1CCCC[C@@H]1C(=O)N[C@H](c1nc(-c2ccc(-c3ccc(-c4c[nH]c([C@@H](NC(=O)[C@H]5CCCCN5C(=O)OC(C)(C)C)C(C)(C)C)n4)cc3)cc2)c[nH]1)C(C)(C)C [Compound L-16] | >100 fold
CC(C)(C)OC(=O)N1CCCC[C@H]1C(=O)N[C@H](c1nc(-c2ccc(-c3ccc(-c4c[nH]c([C@@H](NC(=O)[C@@H]5CCCCN5C(=O)OC(C)(C)C)C(C)(C)C)n4)cc3)cc2)c[nH]1)C(C)(C)C [Compound L-17] | >100 fold
COC(=O)N1CCC[C@@]1(C)C(=O)N[C@H](c1nc(-c2ccc(-c3ccc(-c4c[nH]c([C@@H](NC(=O)[C@]5(C)CCCN5C(=O)OC)C(C)(C)C)n4)cc3)cc2)c[nH]1)C(C)(C)C [Compound L-23] | >100 fold
CCC(CC)(NC(=O)OC(C)(C)C)C(=O)N[C@H](c1nc(-c2ccc(-c3ccc(-c4c[nH]c([C@@H](NC(=O)C(CC)(CC)NC(=O)OC(C)(C)C)C(C)(C)C)n4)cc3)cc2)c[nH]1)C(C)(C)C [Compound L-24] | >100 fold
CC(C)(C)[C@H](NC(=O)CN1CCOC1=O)c1nc(-c2ccc(-c3ccc(-c4c[nH]c([C@@H](NC(=O)CN5CCOC5=O)C(C)(C)C)n4)cc3)cc2)c[nH]1 [Compound L-25] | >10 fold
CC(C)(C)[C@H](NC(=O)C1(N2CCOC2=O)CC1)c1nc(-c2ccc(-c3ccc(-c4c[nH]c([C@@H](NC(=O)C5(N6CCOC6=O)CC5)C(C)(C)C)n4)cc3)cc2)c[nH]1 [Compound L-26] | >100 fold
CC(CF)(CF)OC(=O)NC1(C(=O)N[C@H](c2nc(-c3ccc(-c4ccc(-c5c[nH]c([C@@H](NC(=O)C6(NC(=O)OC(C)(CF)CF)CC6)C(C)(C)C)n5)cc4)cc3)c[nH]2)C(C)(C)C)CC1 [Compound L-27] | >100 fold

Structure (SMILES) | Fold-Synergistic 1a (Q30E)
CC(C)(C)[C@H](NC(=O)C1(OC(=O)N2CCCCC2)CC1)c1nc(-c2ccc(-c3ccc(-c4c[nH]c([C@@H](NC(=O)C5(OC(=O)N6CCCCC6)CC5)C(C)(C)C)n4)cc3)cc2)c[nH]1 [Compound L-28] | >100 fold
CN(C)C(=O)OC1(C(=O)N[C@H](c2nc(-c3ccc(-c4ccc(-c5c[nH]c([C@@H](NC(=O)C6(OC(=O)N(C)C)CC6)C(C)(C)C)n5)cc4)cc3)c[nH]2)C(C)(C)C)CC1 [Compound L-29] | >100 fold
COC(=O)N(C)C1(C(=O)N[C@H](c2nc(-c3ccc(-c4ccc(-c5c[nH]c([C@@H](NC(=O)C6(N(C)C(=O)OC)CC6)C6(C)CC6)n5)cc4)cc3)c[nH]2)C2(C)CC2)CC1 [Compound L-30] | >100 fold
CC(C)(C)[C@H](NC(=O)C1(N2CCOCC2)CC1)c1nc(-c2ccc(-c3ccc(-c4c[nH]c([C@@H](NC(=O)C5(N6CCOCC6)CC5)C(C)(C)C)n4)cc3)cc2)c[nH]1 [Compound L-31] | >100 fold
CC(C)(C)[C@H](NC(=O)C1(n2cncn2)CC1)c1nc(-c2ccc(-c3ccc(-c4c[nH]c([C@@H](NC(=O)C5(n6cncn6)CC5)C(C)(C)C)n4)cc3)cc2)c[nH]1 [Compound L-33] | >100 fold
CCN(CC(F)(F)F)C(=O)C(=O)N[C@H](c1nc(-c2ccc(-c3ccc(-c4c[nH]c([C@@H](NC(=O)C(=O)N(CC)CC(F)(F)F)C5CC5)n4)cc3)cc2)c[nH]1)C1CC1 [Compound L-35] | >100 fold
CC(C)N(C(=O)C(=O)N[C@H](c1nc(-c2ccc(-c3ccc(-c4c[nH]c([C@@H](NC(=O)C(=O)N(C(C)C)C5CC5)C5CC5)n4)cc3)cc2)c[nH]1)C1CC1)C1CC1 [Compound L-36] | >100 fold
O=C(N[C@H](c1nc(-c2ccc(-c3ccc(-c4c[nH]c([C@@H](NC(=O)C(=O)N5CCC(F)(F)CC5)C5CC5)n4)cc3)cc2)c[nH]1)C1CC1)C(=O)N1CCC(F)(F)CC1 [Compound L-37] | >100 fold
CC(C)N(C(=O)OC1(C(=O)N[C@H](c2nc(-c3ccc(-c4ccc(-c5c[nH]c([C@@H](NC(=O)C6(OC(=O)N(C(C)C)C(C)C)CC6)C(C)(C)C)n5)cc4)cc3)c[nH]2)C(C)(C)C)CC1)C(C)C [Compound L-38] | >100 fold
CC(C)N(C(=O)OC1(C(=O)N[C@H](c2nc(-c3ccc(-c4ccc(-c5c[nH]c([C@@H](NC(=O)C6(OC(=O)N(C(C)C)C(C)C)CC6)C6(C)CC6)n5)cc4)cc3)c[nH]2)C2(C)CC2)CC1)C(C)C [Compound L-39] | >100 fold
C[C@@H](OC(=O)NC1(C(=O)N[C@H](c2nc(-c3ccc(-c4ccc(-c5c[nH]c([C@@H](NC(=O)C6(NC(=O)O[C@H](C)C(F)(F)F)CC6)C6(C)CC6)n5)cc4)cc3)c[nH]2)C2(C)CC2)CC1)C(F)(F)F [Compound L-42] | >100 fold
COC(=O)N1CCC(F)(F)C[C@H]1C(=O)N[C@H](c1nc(-c2ccc(-c3ccc(-c4c[nH]c([C@@H](NC(=O)[C@@H]5CC(F)(F)CCN5C(=O)OC)C(C)(C)C)n4)cc3)cc2)c[nH]1)C(C)(C)C [Compound L-43] | >100 fold
C[C@@H](OC(=O)N(C)C1(C(=O)N[C@H](c2nc(-c3ccc(-c4ccc(-c5c[nH]c([C@@H](NC(=O)C6(N(C)C(=O)O[C@H](C)C(F)(F)F)CC6)C(C)(C)C)n5)cc4)cc3)c[nH]2)C(C)(C)C)CC1)C(F)(F)F [Compound L-44] | >100 fold
CC1(C(=O)N[C@H](c2nc(-c3ccc(-c4ccc(-c5c[nH]c([C@@H](NC(=O)C6(C)CC6)C(C)(C)C)n5)cc4)cc3)c[nH]2)C(C)(C)C)CC1 [Compound L-45] | >100 fold
CC(C)(C)OC(=O)N1CCCCC1(C)C(=O)N[C@H](c1nc(-c2ccc(-c3ccc(-c4c[nH]c([C@@H](NC(=O)C5(C)CCCCN5C(=O)OC(C)(C)C)C(C)(C)C)n4)cc3)cc2)c[nH]1)C(C)(C)C (stereo partly drawn) [Compound L-46a] | >100 fold
CC(C)(C)OC(=O)NC1(C(=O)N[C@H](c2nc(-c3ccc(-c4ccc(-c5c[nH]c([C@@H](NC(=O)C6(NC(=O)OC(C)(C)C)CCC(F)(F)CC6)C(C)(C)C)n5)cc4)cc3)c[nH]2)C(C)(C)C)CCC(F)(F)CC1 [Compound L-49] | >100 fold
CC(C)(NCC(F)(F)F)C(=O)N[C@H](c1nc(-c2ccc(-c3ccc(-c4c[nH]c([C@@H](NC(=O)C(C)(C)NCC(F)(F)F)C(C)(C)C)n4)cc3)cc2)c[nH]1)C(C)(C)C [Compound L-50] | >100 fold

Same assay, conditions: Hepatitis C virus; genotype 1a Q30E replicon; P-55 fixed at 200 nM; read-out: EC50 of BMS-790052 in the presence of a fixed amount of P-55

Structure (SMILES) | EC50
COC(=O)N[C@H](C(=O)N1CCC[C@H]1c1nc(-c2ccc(-c3ccc(-c4c[nH]c([C@@H]5CCCN5C(=O)[C@@H](NC(=O)OC)C(C)C)n4)cc3)cc2)c[nH]1)C(C)C [BMS-790052, reference compound] | ~2 nM

Same assay, conditions: Hepatitis C virus; genotype 1a Q30E replicon; compound alone; read-out: EC50, titrated singly

Structure (SMILES) | EC50
COC(=O)N[C@H](C(=O)N1CCC[C@H]1c1nc(-c2ccc(-c3ccc(-c4c[nH]c([C@@H]5CCCN5C(=O)[C@@H](NC(=O)OC)C(C)C)n4)cc3)cc2)c[nH]1)C(C)C [BMS-790052, reference compound] | ~200 nM
